According to patent US10471046B2, “Method for treating, preventing, or reducing the risk of skin infection” (Melinta Subsidiary Corp., priority 2014, dated 2019):
Where a name gives a salt, the structure may show the parent alone.

Key:
[1] = format: physicochemical; conditions: radezolid salt forms in HPLC grade water, ambient temperature
[2] = Dynamic vapor sorption/desorption (DVS); format: physicochemical; conditions: radezolid salts
Protocol: Dynamic vapor sorption/desorption (DVS) data were collected on a VTI SGA-100 Vapor Sorption Analyzer. Sorption and desorption data were collected over a range of 5% to 95% relative humidity (RH) at 10% RH intervals under a nitrogen purge. Samples were not dried prior to analysis. Equilibrium criteria used for analysis were less than 0.0100% weight change in 5 minutes, with a maximum equilibration time of 3 hours if the weight criterion was not met. Data were not corrected for the initial moisture content of the samples. Sodium chloride and polyvinylpyrrolidine (PVP) were used as calibration standards.

[3] = Solubility of salts in water by HPLC; format: physicochemical; conditions: for Solubility at Adjusted pH / Solubility at Native pH: radezolid salts in water by HPLC at 23° C.; for Solubility at Adjusted pH: pH adjusted to ~3.5; for Native pH: supernatant of saturated salt solution in water
Protocol: In another set of experiments, solubility of various radezolid salts was determined by HPLC. Approximately 1 mL of saturated solution (with excess of solid in solution) of each salt was prepared in water. The mixture was further mixed overnight on a slurry wheel then centrifuged on a desktop centrifuge at maximum speed for ˜5 min. The supernatant was collected, and pH was measured. Solubility was determined at the native pH. Then the pH was adjusted to ˜3.5 with sodium hydroxide solution or an acid solution in which salt was generated. The supernatant was filtered through a 0.2 μm nylon syringe filter and diluted into 0.1% formic acid solution immediately after filtration for HPLC. All HPLC analyses were performed using an Agilent 1100 series liquid chromatograph equipped with a diode array detector, degasser, quaternary pump, and an autosampler. […] The column temperature was set to 30° C., and the detector wavelength was 270 nm with a bandwidth of 8 nm and a reference wavelength of 360 nm. The mobile phase A was 0.1% formic acid in water (HPLC grade), mobile phase B was 0.1% formic acid in methanol (HPLC grade). […] The injection volume was 5 μl.

Compound: CC(=O)NC[C@H]1CN(c2ccc(-c3ccc(CNCc4cnn[nH]4)cc3)c(F)c2)C(=O)O1 [Lactate]
- solubility [1]: <20 µg/mL

Compound: CC(=O)NC[C@H]1CN(c2ccc(-c3ccc(CNCc4cnn[nH]4)cc3)c(F)c2)C(=O)O1 [Maleate]
- solubility [1]: 2300 µg/mL

Compound: CC(=O)NC[C@H]1CN(c2ccc(-c3ccc(CNCc4cnn[nH]4)cc3)c(F)c2)C(=O)O1 [Salicylate]
- solubility [1]: <30 µg/mL

Compound: CC(=O)NC[C@H]1CN(c2ccc(-c3ccc(CNCc4cnn[nH]4)cc3)c(F)c2)C(=O)O1 [Succinate]
- solubility [1]: <30 µg/mL

Compound: CC(=O)NC[C@H]1CN(c2ccc(-c3ccc(CNCc4cnn[nH]4)cc3)c(F)c2)C(=O)O1 [Citrate]
- solubility [1]: 2600 µg/mL

Compound: CC(=O)NC[C@H]1CN(c2ccc(-c3ccc(CNCc4cnn[nH]4)cc3)c(F)c2)C(=O)O1 [Benzoate]
- solubility [1]: <30 µg/mL

Compound: CC(=O)NC[C@H]1CN(c2ccc(-c3ccc(CNCc4cnn[nH]4)cc3)c(F)c2)C(=O)O1 [Fumarate]
- solubility [1]: 2600 µg/mL

Compound: CC(=O)NC[C@H]1CN(c2ccc(-c3ccc(CNCc4cnn[nH]4)cc3)c(F)c2)C(=O)O1 [Tosylate, Radezolid Tosylate Salt]
- DVS desorption: weight loss from 95 to 5% RH ([2]; Tosylate Salt): Desorption: 0.435% weight loss
- DVS sorption: weight gain from 5 to 95% RH ([2]; Tosylate Salt): 0.435% weight gain from 5 to
- DVS sorption: weight loss upon equilibration at 5% RH ([2]; Tosylate Salt): Sorption: 0.070% weight loss
- Solubility at Adjusted pH ([3]; Tosylate Salt): 0.4 mg/mL
- Solubility at Native pH ([3]; Tosylate Salt): 0.9 mg/mL
- Native pH ([3]; Tosylate Salt): 5.1

Compound: CC(=O)NC[C@H]1CN(c2ccc(-c3ccc(CNCc4cnn[nH]4)cc3)c(F)c2)C(=O)O1 [Mesylate, Radezolid Mesylate Salt]
- DVS desorption: weight loss from 95 to 5% RH ([2]; Mesylate Salt): Desorption: 0.835% weight loss
- DVS sorption: weight gain from 5 to 95% RH ([2]; Mesylate Salt): 1.025% weight gain from 5 to
- DVS sorption: weight loss upon equilibration at 5% RH ([2]; Mesylate Salt): Sorption: 0.114% weight loss
- Solubility at Adjusted pH ([3]; Mesylate Salt): 18.0 mg/mL
- Solubility at Native pH ([3]; Mesylate Salt): 18.6 mg/mL
- Native pH ([3]; Mesylate Salt): 4.1

Compound: CC(=O)NC[C@H]1CN(c2ccc(-c3ccc(CNCc4cnn[nH]4)cc3)c(F)c2)C(=O)O1 [Esylate, Radezolid Esylate Salt]
- DVS desorption: weight loss from 95 to 5% RH [2]: Desorption: 2.999% weight loss
- DVS sorption: weight gain from 5 to 95% RH [2]: 2.930% weight gain from 5 to
- DVS sorption: weight loss upon equilibration at 5% RH [2]: Sorption: 0.22% weight loss
- Solubility at Native pH [3]: 53.8 mg/mL
- Solubility at Adjusted pH [3]: 61.7 mg/mL
- Native pH [3]: 4.0

Compound: CC(=O)NC[C@H]1CN(c2ccc(-c3ccc(CNCc4cnn[nH]4)cc3)c(F)c2)C(=O)O1 [Tartrate]
- solubility [1]: 1800 µg/mL

Compound: CC(=O)NC[C@H]1CN(c2ccc(-c3ccc(CNCc4cnn[nH]4)cc3)c(F)c2)C(=O)O1 [Phosphate]
- solubility [1]: 1100 µg/mL

Compound: CC(=O)NC[C@H]1CN(c2ccc(-c3ccc(CNCc4cnn[nH]4)cc3)c(F)c2)C(=O)O1 [Ethane-1,2-disulfonate, Radezolid Ethanedisulfonate Salt]
- DVS desorption: weight loss from 95 to 5% RH [2]: Desorption: 2.388% weight loss
- DVS sorption: weight gain from 5 to 95% RH [2]: 2.355% weight gain from 5 to
- DVS sorption: weight loss upon equilibration at 5% RH [2]: Sorption: 0.017% weight loss
- Solubility at Native pH [3]: >133.2 mg/mL
- Solubility at Adjusted pH [3]: >116.9 mg/mL
- Native pH [3]: 2.0

Compound: CC(=O)NC[C@H]1CN(c2ccc(-c3ccc(CNCc4cnn[nH]4)cc3)c(F)c2)C(=O)O1 [Sulfate, Radezolid Sulfate Salt]
- DVS desorption: weight loss from 95 to 5% RH ([2]; Sulfate Salt): Desorption: 11.504% weight loss
- DVS sorption: weight gain from 5 to 95% RH ([2]; Sulfate Salt): 11.527% weight gain from 5 to
- DVS sorption: weight loss upon equilibration at 5% RH ([2]; Sulfate Salt): Sorption: 0.654% weight loss
- Solubility at Adjusted pH ([3]; Sulfate Salt): 3.3 mg/mL
- Solubility at Native pH ([3]; Sulfate Salt): 4.0 mg/mL
- Native pH ([3]; Sulfate Salt): 1.9

Compound: CC(=O)NC[C@H]1CN(c2ccc(-c3ccc(CNCc4cnn[nH]4)cc3)c(F)c2)C(=O)O1 [Acetate]
- solubility [1]: <20 µg/mL
